Assays:
[1] = test system: MCC13 cells (VN-MCC); experiment: qHTS cell viability (CellTiter-Glo, 72 h; primary and follow-up small molecule screen); type: cell-based, human
[2] = test system: MCC26 cells (VN-MCC); experiment: as above; type: cell-based, human
[3] = test system: UISO cells (VN-MCC); experiment: as above; type: cell-based, human
[4] = test system: WAGA cells (VP-MCC); experiment: as above; type: cell-based, human
[5] = test system: MKL-1 cells (VP-MCC); experiment: as above; type: cell-based, human
[6] = test system: MKL-2 cells (VP-MCC); experiment: as above; type: cell-based, human
[7] = test system: HACAT cells; experiment: qHTS cell viability (CellTiter-Glo, 72 h; primary screen), control cell line; type: cell-based, human
[8] = test system: HEK293T cells; experiment: as above; type: cell-based, human
[9] = test system: NIH-3T3 cells; experiment: as above; type: cell-based, mouse
[10] = test system: CRL-7250 cells; experiment: as above; type: cell-based
[11] = test system: MCC cell lines (WAGA, MKL-1, MKL-2, MCC13, MCC26, UISO); experiment: qHTS cell viability, all six MCC cell lines as a group (mean AUC, MCC.avg); type: cell-based, human; settings: mean AUC of six MCC cell lines
[12] = test system: VP-MCC cell lines (WAGA, MKL-1, MKL-2); experiment: qHTS cell viability, VP-MCC cell lines as a group (mean AUC, VP.MCC.avg); type: cell-based, human; settings: for VP-MCC_Avg_AUC: mean AUC of VP-MCC cell lines
[13] = test system: VN-MCC cell lines (MCC13, MCC26, UISO); experiment: qHTS cell viability, VN-MCC cell lines as a group (mean AUC, VN.MCC.avg); type: cell-based, human; settings: for VN-MCC_Avg_AUC: mean AUC of VN-MCC cell lines
[14] = test system: control cell lines (HACAT, HEK293T, CRL-7250, NIH-3T3); experiment: qHTS cell viability, control cell lines as a group (mean AUC, Control.avg); type: cell-based; settings: mean AUC of control cell lines
[15] = test system: six MCC cell lines and four control cell lines; experiment: qHTS cell viability, all 10 cell lines screened; type: cell-based
[16] = MIPE library, 11-point DRC, sheet S2E
[17] = MIPE library, 11-point DRC, control cell line, sheet S2E
[18] = MIPE library, Control AUC minus VP-MCC AUC (therapeutic window), sheet S2E
[19] = MIPE library, Control AUC minus VN-MCC AUC (therapeutic window), sheet S2E
[20] = MIPE library, Control AUC minus MCC AUC (therapeutic window), sheet S2E
[21] = NPC library, qHTS dose-response AUC, MCC13
[22] = NPC library, qHTS dose-response AUC, MCC26
[23] = NPC library, qHTS dose-response AUC, UISO
[24] = NPC library, qHTS dose-response AUC, WAGA
[25] = NPC library, qHTS dose-response AUC, MKL1
[26] = NPC library, qHTS dose-response AUC, MKL2
[27] = NPC library, qHTS dose-response AUC, HACAT control
[28] = NPC library, qHTS dose-response AUC, HEK293T control
[29] = NPC library, qHTS dose-response AUC, NIH3T3 control
[30] = NPC library, qHTS dose-response AUC, CRL7250 control
[31] = NPC library, therapeutic window: Control avg AUC minus VP-MCC avg AUC
[32] = NPC library, therapeutic window: Control avg AUC minus VN-MCC avg AUC
[33] = NPC library, therapeutic window: Control avg AUC minus MCC avg AUC

Molecule `CN(C)CC[C@H](CSc1ccccc1)Nc1ccc(S(=O)(=O)NC(=O)c2ccc(N3CCN(Cc4ccccc4-c4ccc(Cl)cc4)CC3)cc2)cc1[N+](=O)[O-]` [ABT-737] has an MCC13_AUC [1, 16] of 474.092, an MCC26_AUC [2, 16] of 472.052 and a UISO_AUC [3, 16] of 486.905. The WAGA_AUC [4, 16] was 285.196, the MKL1_AUC [5, 16] was 334.511 and the MKL2_AUC [6, 16] was 288.506. For the same molecule, the HACAT_AUC [7, 17] was 430.037, the HEK293T_AUC [8, 17] was 444.395 and the NIH3T3_AUC [9, 17] was 431.249. It also gave a CRL7250_AUC [10, 17] of 467.3, an MCC_Avg_AUC ([11]; MIPE library, sheet S2E) of 390.211 and a Control-VP-MCC [12, 18] of 140.507. For the same molecule, the VP-MCC_Avg_AUC ([12]; MIPE library, sheet S2E) was 302.738, the Control-VN-MCC [13, 19] was -34.4381 and the VN-MCC_Avg_AUC ([13]; MIPE library, sheet S2E) was 477.683. It also gave a Control_Avg_AUC ([14]; MIPE library, sheet S2E) of 443.245 and a Control-MCC [15, 20] of 53.0346.
With `Cc1nc2ccccn2c(=O)c1CCN1CCC(C(=O)c2ccc(F)cc2)CC1` [Pirenperone] the MCC13_AUC [1, 21] was 440.287, the MCC13_AUC ([1]; area under the dose-response curve, MCC13 cells, AUC<450 = reduced viability) was 440.287 and the MCC26_AUC [2, 22] was 401.594. The MCC26_AUC ([2]; area under the dose-response curve, MCC26 cells, AUC<450 = reduced viability) was 401.594, the UISO_AUC [3, 23] was 436.893 and the UISO_AUC ([3]; area under the dose-response curve, UISO cells, AUC<450 = reduced viability) was 436.893. It also gave a WAGA_AUC [4, 24] of 415.843, a WAGA_AUC ([4]; area under the dose-response curve, WAGA cells, AUC<450 = reduced viability) of 415.843 and an MKL1_AUC [5, 25] of 418.427. For the same molecule, the MKL1_AUC ([5]; {}) was 418.427, the MKL2_AUC [6, 26] was 400.974 and the MKL2_AUC ([6]; area under the dose-response curve, MKL-2 cells, AUC<450 = reduced viability) was 400.974. For the same molecule, the HACAT_AUC [7, 27] was 457.02, the HACAT_AUC ([7]; area under the dose-response curve, HACAT control cells, AUC<450 = reduced viability) was 457.02 and the HEK293T_AUC [8, 28] was 450.239. It also gave an HEK293T_AUC ([8]; area under the dose-response curve, HEK293T control cells, AUC<450 = reduced viability) of 450.239, an NIH3T3_AUC [9, 29] of 477.551 and an NIH3T3_AUC ([9]; area under the dose-response curve, NIH3T3 control cells, AUC<450 = reduced viability) of 477.551. The CRL7250_AUC [10, 30] was 480.924, the CRL7250_AUC ([10]; area under the dose-response curve, CRL7250 control cells, AUC<450 = reduced viability) was 480.924 and the MCC_Avg_AUC ([11]; NPC library) was 419.003. The VP-MCC_Avg_AUC ([12]; NPC library) was 411.748, the Control-VP-MCC [12, 31] was 54.686 and the VN-MCC_Avg_AUC ([13]; NPC library) was 426.258. For the same molecule, the Control-VN-MCC [13, 32] was 40.1758, the Control_Avg_AUC ([14]; NPC library) was 466.434 and the Control-MCC [15, 33] was 47.4309.
Molecule `COCC1(CO)C(=O)C2CCN1CC2` (stereo not drawn) [APR-246] has an MCC13_AUC [1, 16] of 460.845, an MCC26_AUC [2, 16] of 464.929 and a UISO_AUC [3, 16] of 425.775. For the same molecule, the WAGA_AUC [4, 16] was 329.393, the MKL1_AUC [5, 16] was 344.8 and the MKL2_AUC [6, 16] was 331.652. It also gave an HACAT_AUC [7, 17] of 475.968, an HEK293T_AUC [8, 17] of 390.353 and an NIH3T3_AUC [9, 17] of 403.185. It also gave a CRL7250_AUC [10, 17] of 448.778, an MCC_Avg_AUC ([11]; MIPE library, sheet S2E) of 392.899 and a Control-VP-MCC [12, 18] of 94.289. The VP-MCC_Avg_AUC ([12]; MIPE library, sheet S2E) was 335.282, the Control-VN-MCC [13, 19] was -20.9457 and the VN-MCC_Avg_AUC ([13]; MIPE library, sheet S2E) was 450.517. The Control_Avg_AUC ([14]; MIPE library, sheet S2E) was 429.571 and the Control-MCC [15, 20] was 36.6717.
For `N=C(N)NN=C(/C=C/c1ccc([N+](=O)[O-])o1)/C=C/c1ccc([N+](=O)[O-])o1` [Nitrovin], the MCC13_AUC [1, 21] was 392.271, the MCC26_AUC [2, 22] was 411.446 and the UISO_AUC [3, 23] was 349.388. The WAGA_AUC [4, 24] was 248.028, the MKL1_AUC [5, 25] was 291.263 and the MKL2_AUC [6, 26] was 260.273. The HACAT_AUC [7, 27] was 415.924, the HEK293T_AUC [8, 28] was 356.338 and the NIH3T3_AUC [9, 29] was 385.648. The CRL7250_AUC [10, 30] was 323.737, the MCC_Avg_AUC ([11]; NPC library) was 325.445 and the VP-MCC_Avg_AUC ([12]; NPC library) was 266.521. It also gave a Control-VP-MCC [12, 31] of 103.891, a VN-MCC_Avg_AUC ([13]; NPC library) of 384.368 and a Control-VN-MCC [13, 32] of -13.9562. For the same molecule, the Control_Avg_AUC ([14]; NPC library) was 370.412 and the Control-MCC [15, 33] was 44.9672.

— paper PMC11822212, “High-throughput screening identifies Aurora kinase B as a critical therapeutic target for Merkel cell carcinoma” (Nature Communications, 2025)
